tested on: ATF4 luciferase reporter; assay: ATF4-Luc assay in HEK293T cells carrying the ATF4 luciferase reporter (in vitro model of VWMD); type: cell-based, human; details: Homo sapiens, HEK-293T, 1 μg/mL tunicamycin, 7 hours, luminescence (One Glo)
Protocol: In order to test exemplary compounds of the invention in a cellular context, a stable VWMD cell line was first constructed. The ATF4 reporter was prepared by fusing the human full-length ATF4 5′-UTR (NCBI Accession No. BC022088.2) in front of the firefly luciferase (FLuc) coding sequence lacking the initiator methionine as described in Sidrauski et al (eLife 2013). The construct was used to produce recombinant retroviruses using standard methods and the resulting viral supernatant was used to transduce HEK293T cells, which were then subsequently selected with puromycin to generate a stable cell line.
HEK293T cells carrying the ATF4 luciferase reporter were plated on polylysine coated 384-well plates (Greiner Bio-one) at 30,000 cells per well. Cells were treated the next day with 1 μg/mL tunicamycin and 200 nM of a compound of Formula (I) for 7 hours. Luminescence was measured using One Glo (Promega) as specified by the manufacturer. Cells were maintained in DMEM with L-glutamine supplemented with 10% heat-inactivated FBS (Gibco) and Antibiotic-Antimycotic solution (Gibco).
Table 2 below summarizes the EC50 data obtained using the ATF4-Luc assay for exemplary compounds of the invention.

Row | EC50 | SMILES
1 | 1000 to 2000 nM | COc1cccc(CNC(=O)C23CCC(NC(=O)COc4ccc(Cl)c(F)c4)(CC2)CC3O)c1 (stereo not shown) [Compound 127, 4-[2-(4-chloro-3-fluorophenoxy)acetamido]-2-hydroxy-N-[(3-methoxyphenyl)methyl]bicyclo[2.2.2]octane-1-carboxamide]
2 | > 2000 nM | O=C(COc1ccc(Cl)c(F)c1)NC12CC(C(=O)NCCc3c[nH]cn3)(C1)C2 [Compound 188, 3-[2-(4-chloro-3-fluorophenoxy)acetamido]-N-[2-(1H-imidazol-4-yl)ethyl]bicyclo[1.1.1]pentane-1-carboxamide]
3 | > 2000 nM | O=C(COc1ccc(Cl)c(F)c1)NC12CC(C(=O)NCc3c(Cl)cccc3Cl)(C1)C2 [Compound 163, 3-[2-(4-chloro-3-fluorophenoxy)acetamido]-N-[(2,6-dichlorophenyl)methyl]bicyclo[1.1.1]pentane-1-carboxamide]
4 | > 2000 nM | CCCc1cc(CNC(=O)C23CC(NC(=O)COc4ccc(Cl)c(F)c4)(C2)C3)on1 [Compound 247, 3-[2-(4-chloro-3-fluorophenoxy)acetamido]-N-[(3-propyl-1,2-oxazol-5-yl)methyl]bicyclo[1.1.1]pentane-1-carboxamide]
5 | 500 to 1000 nM | Cc1cccc(CNC(=O)C23CCC(NC(=O)COc4ccc(Cl)c(F)c4)(CC2)CC3O)c1 (stereo not shown) [Compound 124, 4-[2-(4-chloro-3-fluorophenoxy)acetamido]-2-hydroxy-N-[(3-methylphenyl)methyl]bicyclo[2.2.2]octane-1-carboxamide]
6 | < 250 nM | O=C(COc1ccc(Cl)cc1)NC12CC(C(=O)NCCOc3ccc(Cl)cc3)(C1)C2 [Compound 100, 3-[2-(4-chlorophenoxy)acetamido]-N-[2-(4-chlorophenoxy)ethyl]bicyclo[1.1.1]-pentane-1-carboxamide]
7 | < 250 nM | O=C(COc1ccc(Cl)c(F)c1)NC12CCC(C(=O)NCc3ccc(OC(F)F)cn3)(CC1)C(O)C2 (stereo not shown) [Compound 146, 4-[2-(4-chloro-3-fluorophenoxy)acetamido]-N-{[5-(difluoromethoxy)pyridin-2-yl]methyl}-2-hydroxybicyclo[2.2.2]octane-1-carboxamide]
8 | 500 to 1000 nM | CC(C)c1cc(CNC(=O)C23CCC(NC(=O)COc4ccc(Cl)c(F)c4)(CC2)CC3O)on1 (stereo not shown) [Compound 109, 4-[2-(4-chloro-3-fluorophenoxy)acetamido]-2-hydroxy-N-{[3-(propan-2-yl)-1,2-oxazol-5-yl]methyl}bicyclo[2.2.2]octane-1-carboxamide]
9 | < 250 nM | N#Cc1ccc(CNC(=O)C23CCC(NC(=O)COc4ccc(Cl)c(F)c4)(CC2)CC3O)nc1 (stereo not shown) [Compound 141, 4-[2-(4-chloro-3-fluorophenoxy)acetamido]-N-[(5-cyanopyridin-2-yl)methyl]-2-hydroxybicyclo[2.2.2]octane-1-carboxamide]
10 | < 250 nM | O=C(COc1ccc(Cl)c(F)c1)NC12CC(C(=O)NCc3ccc(Cl)cc3)(C1)C2 [Compound 117, 3-[2-(4-chloro-3-fluorophenoxy)acetamido]-N-[(4-chlorophenyl)methyl]bicyclo[1.1.1]pentane-1-carboxamide]
11 | > 2000 nM | Cc1nn(C)cc1CNC(=O)C12CC(NC(=O)COc3ccc(Cl)c(F)c3)(C1)C2 [Compound 152, 3-[2-(4-chloro-3-fluorophenoxy)acetamido]-N-[(1,3-dimethyl-1H-pyrazol-4-yl)methyl]bicyclo[1.1.1]pentane-1-carboxamide]
12 | > 2000 nM | O=C(COc1ccc(Cl)c(F)c1)NC12CC(C(=O)NCc3cccc(OC(F)(F)F)c3)(C1)C2 [Compound 161, 3-[2-(4-chloro-3-fluorophenoxy)acetamido]-N-{[3-(trifluoromethoxy)phenyl]methyl}bicyclo[1.1.1]pentane-1-carboxamide]
13 | > 2000 nM | O=C(COc1ccc(Cl)c(F)c1)NC12CC(C(=O)NCc3ccccc3OC(F)F)(C1)C2 [Compound 243, 3-[2-(4-chloro-3-fluorophenoxy)acetamido]-N-{[2-(difluoromethoxy)phenyl]methyl}bicyclo[1.1.1]pentane-1-carboxamide]
14 | 1000 to 2000 nM | O=C(COc1ccc(Cl)c(F)c1)NC12CC(C(=O)NCc3cn4ccccc4n3)(C1)C2 [Compound 191, 3-[2-(4-chloro-3-fluorophenoxy)acetamido]-N-[(imidazo[1,2-a]pyridin-2-yl)methyl]bicyclo[1.1.1]pentane-1-carboxamide]
15 | > 2000 nM | O=C(COc1ccc(Cl)c(F)c1)NC12CC(C(=O)NCc3nccs3)(C1)C2 [Compound 208, 3-[2-(4-chloro-3-fluorophenoxy)acetamido]-N-[(1,3-thiazol-2-yl)methyl]bicyclo[1.1.1]pentane-1-carboxamide]
16 | > 2000 nM | O=C(COc1ccc(Cl)c(F)c1)NC12CC(C(=O)NCCc3ccc(C(F)(F)F)cn3)(C1)C2 [Compound 213, 3-[2-(4-chloro-3-fluorophenoxy)acetamido]-N-{2-[5-(trifluoromethyl)pyridin-2-yl]ethyl}bicyclo[1.1.1]pentane-1-carboxamide]

Row | EC50 | SMILES
17 | > 2000 nM | CC(C)c1ccc(CNC(=O)C23CC(NC(=O)COc4ccc(Cl)c(F)c4)(C2)C3)cc1 [Compound 227, 3-[2-(4-chloro-3-fluorophenoxy)acetamido]-N-{[4-(propan-2-yl)phenyl]methyl}bicyclo[1.1.1]pentane-1-carboxamide]
18 | > 2000 nM | Cc1cc(C)c(CNC(=O)C23CCC(NC(=O)COc4ccc(Cl)c(F)c4)(CC2)CC3O)cn1 (stereo not shown) [Compound 111, 4-[2-(4-chloro-3-fluorophenoxy)acetamido]-N-[(4,6-dimethylpyridin-3-yl)methyl]-2-hydroxybicyclo[2.2.2]octane-1-carboxamide]
19 | > 2000 nM | O=C(COc1ccc(Cl)c(F)c1)NC12CCC(C(=O)NCc3cnccn3)(CC1)C(O)C2 (stereo not shown) [Compound 144]
20 | 500 to 1000 nM | Cc1ccccc1CNC(=O)C12CC(NC(=O)COc3ccc(Cl)c(F)c3)(C1)C2 [Compound 197, 3-[2-(4-chloro-3-fluorophenoxy)acetamido]-N-[(2-methylphenyl)methyl]bicyclo[1.1.1]pentane-1-carboxamide]
21 | > 2000 nM | Cc1noc(C)c1CCCNC(=O)C12CC(NC(=O)COc3ccc(Cl)c(F)c3)(C1)C2 [Compound 220, 3-[2-(4-chloro-3-fluorophenoxy)acetamido]-N-[3-(3,5-dimethyl-1,2-oxazol-4-yl)propyl]bicyclo[1.1.1]pentane-1-carboxamide]
22 | > 2000 nM | CCc1nccc(CNC(=O)C23CC(NC(=O)COc4ccc(Cl)c(F)c4)(C2)C3)n1 [Compound 217, 3-[2-(4-chloro-3-fluorophenoxy)acetamido]-N-[(2-ethylpyrimidin-4-yl)methyl]bicyclo[1.1.1]pentane-1-carboxamide]
23 | > 2000 nM | Cc1cnc(CNC(=O)C23CC(NC(=O)COc4ccc(Cl)c(F)c4)(C2)C3)o1 [Compound 177, 3-[2-(4-chloro-3-fluorophenoxy)acetamido]-N-[(5-methyl-1,3-oxazol-2-yl)methyl]bicyclo[1.1.1]pentane-1-carboxamide]
24 | > 2000 nM | O=C(COc1ccc(Cl)c(F)c1)NC12CC(C(=O)NCc3ccc(C(F)(F)F)o3)(C1)C2 [Compound 215, 3-[2-(4-chloro-3-fluorophenoxy)acetamido]-N-{[5-(trifluoromethyl)furan-2-yl]methyl}bicyclo[1.1.1]pentane-1-carboxamide]
25 | < 250 nM | O=C(COc1ccc(Cl)c(F)c1)NC12CCC(C(=O)NCc3ccc(Cl)cn3)(CC1)C(O)C2 (stereo not shown) [Compound 108, 4-[2-(4-chloro-3-fluorophenoxy)acetamido]-N-[(5-chloropyridin-2-yl)methyl]-2-hydroxybicyclo[2.2.2]octane-1-carboxamide]
26 | > 2000 nM | Cn1nccc1CNC(=O)C12CC(NC(=O)COc3ccc(Cl)c(F)c3)(C1)C2 [Compound 184, 3-[2-(4-chloro-3-fluorophenoxy)acetamido]-N-[(1-methyl-1H-pyrazol-5-yl)methyl]bicyclo[1.1.1]pentane-1-carboxamide]
27 | > 2000 nM | O=C(COc1ccc(Cl)c(F)c1)NC12CC(C(=O)NCc3cnoc3)(C1)C2 [Compound 170, 3-[2-(4-chloro-3-fluorophenoxy)acetamido]-N-[(1,2-oxazol-4-yl)methyl]bicyclo[1.1.1]pentane-1-carboxamide]
28 | > 2000 nM | C[C@H](NC(=O)C12CC(NC(=O)COc3ccc(Cl)c(F)c3)(C1)C2)c1ccc(Cl)cc1 [Compound 183, 3-[2-(4-chloro-3-fluorophenoxy)acetamido]-N-[(1S)-1-(4-chlorophenyl)ethyl]bicyclo[1.1.1]pentane-1-carboxamide]
29 | > 2000 nM | CS(=O)(=O)c1ccc(CNC(=O)C23CCC(NC(=O)COc4ccc(Cl)c(F)c4)(CC2)CC3O)nc1 (stereo not shown) [Compound 121, 4-[2-(4-chloro-3-fluorophenoxy)acetamido]-2-hydroxy-N-{[5-(methanesulfonyl)pyridin-2-yl]methyl}bicyclo[2.2.2]octane-1-carboxamide]
30 | 1000 to 2000 nM | Cc1cccc(OCCNC(=O)C23CC(NC(=O)COc4ccc(Cl)cc4)(C2)C3)c1 [Compound 101, 3-[2-(4-chlorophenoxy)acetamido]-N-[2-(3-methylphenoxy)ethyl]bicyclo[1.1.1]-pentane-1-carboxamide]
31 | < 250 nM | O=C(COc1ccc(Cl)c(F)c1)NC12CC(C(=O)NCc3ccc(C(F)(F)F)cc3)(C1)C2 [Compound 156, 3-[2-(4-chloro-3-fluorophenoxy)acetamido]-N-{[4-(trifluoromethyl)phenyl]methyl}bicyclo[1.1.1]pentane-1-carboxamide]
